The results in this text go back to patent publication US11173124B2, “Oral delivery of GLP-1 peptide analogs” (MEDIMMUNE LIMITED, priority 2017, dated 2021).

In brackets after ≈: the same amount, converted by molar mass.

One series can be described thus: physchem. The source says: A known amount of the permeation enhancer, the peptide, or both were combined with increasing amounts of buffer until the permeation enhancer and/or the peptide were completely solubilized.
A short description of series [1]: Canine site of absorption study, IntelliCap, SEQ ID NO:5 solution formulations (Example 11). In kind it is in vivo, Beagle dogs. As to conditions: for bioavailability / AUC(0-t) / Cmax / Tmax: dog; for bioavailability: plasma; for AUC(0-t) / Cmax / Tmax: in vivo. The source says: The IntelliCap® system, an electronic oral drug delivery and monitoring device, was used to determine regional absorption for solution formulations. In the form of a capsule, the IntelliCap® incorporates a microprocessor, battery, pH sensor, temperature sensor, radio frequency (RF) wireless transceiver, fluid pump, and drug reservoir. The IntelliCap® system can determine the drug's position in the gastrointestinal (GI) tract by a pH monitoring sensor in the capsule, thereby eliminating the need for in vivo imaging. This system was employed to assess the site of absorption of GLP-1 peptide analogs in the GI tract following oral delivery to canines (Beagle dogs). Solution formulations without permeation enhancer excipients were used as intravenous (IV) and subcutaneous (SC) controls in the study. In brief, solution formulations were prepared and transferred to the IntelliCap® capsule which was dosed to canines, wherein the formulation was released at a specific site in the GI tract.
An additional site of absorption study was performed to evaluate the best site of absorption of the SEQ ID NO:5 GLP-1 peptide analog solution formulations after oral administration of IntelliCap capsules to canines (Beagle dogs). Delivery of the SEQ ID NO:5 peptide to the proximal small bowel (after pylorus passage), distal small bowel (before ileocecal passage), and proximal colon (after ileocecal passage) were studied.

Another series has as its system Caco-2 cells. Put plainly: Caco-2 study, Permeability (%) of lipidated peptides (Example 3). In kind it is in vitro ADME, human. To be noted: 0.1 mg/mL peptide. The source says:
The Caco-2 cell line is a continuous cell line of heterogeneous human epithelial colorectal adenocarcinoma cells, which when cultured under specific conditions, become differentiated and polarized such that their phenotype, morphologically and functionally, resembles the enterocytes lining the small intestine. Caco-2 cells express tight junctions, microvilli, and a number of enzymes and transporters that are characteristic of such enterocytes. Caco-2 cells are most commonly used as a tight junction monolayer that provides a physical and biochemical barrier to the passage of drugs and thus serves as an in vitro model of the human small intestinal mucosa to predict the absorption of orally administered drugs. Caco-2 permeability assays were performed by Cyprotex US, LLC (MA, USA) to assess the efficacy of different permeation enhancers. Caco-2 cells were grown on Transwell filters until a transepithelial electric resistance of ˜1000 ohms/cm^2 was achieved. The cells were incubated for three hours with media containing test samples on the apical (top) side of the cell layer, and with blank media on the basolateral (lower) side of the cell layer. Media from the apical and basolateral sides was collected separately after three hours and evaluated for the amount of peptide present on each side. Table 2 gives the permeability coefficient (Papp) of the various test samples, which include the SEQ ID NO:3 GLP-1 peptide in the presence of different excipients.
A following Caco-2 study was performed to evaluate the permeability of different peptides in the presence of various permeation enhancers. Permeability (%) was calculated by dividing the cumulative amount of molecules transported with the original loading amount. Concentrations of peptides in starting sample and apical and basal solutions after incubation for pre-determined periods were analyzed by HPLC. Sodium chenodeoxycholate at 25 mg/mL effected the highest permeability of each tested peptide (Table 4).
In general terms: Passage across Caco-2 layers is used to estimate intestinal permeability.

Setting [2] is: Intravenous, 0.03 mg/kg, 0.3 mg/mL peptide in 50 mM Tris, 150 mM Mannitol, 0.02% PS80, pH 8.0.
Setting [3] is: IntelliCap, Distal small bowel, 0.81 mg/kg, 12 mg/mL peptide, 25 mg/mL Na CDC, 12.5 mg/mL PG, pH 8.0.
Where [4] appears, read: IntelliCap, Proximal colon, 0.85 mg/kg, 12 mg/mL peptide, 25 mg/mL Na CDC, 12.5 mg/mL PG, pH 8.0.
Where [5] appears, read: IntelliCap, Proximal small bowel, 0.86 mg/kg, 12 mg/mL peptide, 25 mg/mL Na CDC, 12.5 mg/mL PG, pH 8.0.
Setting [6] is: sc, Subcutaneous, 0.03 mg/kg, 0.3 mg/mL peptide in 50 mM Tris, 150 mM Mannitol, 0.02% PS80, pH 8.0.

As a reminder, the solubility is how much of the substance goes into solution per volume. `CCCOC(=O)c1cc(O)c(O)c(O)c1` [Propyl Gallate]: the solubility is 3000 µg/mL (≈ 14.1 mM) in the series “physchem” (pH 5, aqueous buffer, thermodynamic from solid); 3000 µg/mL (≈ 14.1 mM) in “physchem” (pH 6, aqueous buffer, thermodynamic from solid); 3300 µg/mL (≈ 15.6 mM) in “physchem” (pH 7); < 250 µg/mL in “physchem” (pH 7.5, aqueous buffer, thermodynamic from solid); < 250 µg/mL in “physchem” (pH 8, aqueous buffer, thermodynamic from solid); < 250 µg/mL in “physchem” (pH 9, aqueous buffer, thermodynamic from solid). Also, in the series “physchem” (pH 7.5), the “solubility as a function of pH (in words)” value was “low solubility at pH 7.5 and above”.
A word on the bioavailability: it is dose-corrected exposure relative to a reference, in per cent. The low end stands for little systemic uptake, the high end for much systemic uptake. For orientation: AUC(0-t) means exposure summed from dosing to a finite time, without extrapolation to infinity. The low end stands for low exposure, the high end for high exposure. The term Cmax denotes the peak of the concentration-time curve. Broadly, the Tmax is the time from dosing to the highest level. Consider `CCCCCCCCCCCC(=O)N[C@@H](CCC(=O)NCCOCCOCC(=O)NCCOCCOCC(=O)NCCCC[C@H](NC(=O)[C@H](C)NC(=O)[C@@H](NC(=O)[C@H](Cc1ccccc1)NC(=O)[C@H](CCC(=O)O)NC(=O)C(C)(CCCCN)NC(=O)[C@H](C)NC(=O)[C@H](C)NC(=O)[C@H](CCC(=O)O)NC(=O)CNC(=O)[C@H](CCC(=O)O)NC(=O)[C@H](CC(C)C)NC(=O)[C@H](Cc1ccc(O)cc1)NC(=O)[C@H](CCCCNC(=O)COCCOCCNC(=O)COCCOCCNC(=O)CC[C@H](NC(=O)CCCCCCCCCCC)C(=O)O)NC(=O)[C@H](CO)NC(=O)[C@@H](NC(=O)[C@H](CC(=O)O)NC(=O)[C@H](CO)NC(=O)[C@@H](NC(=O)C(C)(Cc1ccccc1)NC(=O)[C@H](CO)NC(=O)CNC(=O)[C@H](CCC(=O)O)NC(=O)C(C)(C)NC(=O)[C@@H](N)Cc1c[nH]cn1)[C@@H](C)O)C(C)C)[C@@H](C)CC)C(=O)N[C@H](C(=O)N[C@H](C(=O)N[C@@H](CCC(=O)O)C(=O)NCC(=O)NCC(N)=O)C(C)C)C(C)C)C(=O)O` (stereo partly drawn) [SEQ ID NO: 5, Free-H-[AIB]-EGS-[αMePhe]-TSDVSK[(PEG2)2-γE-Lauroyl]-YLEGEAA-[αMeLys]-EFIAK[(PEG2)2-γE-Lauroyl]-VVEGG-amide], for which the bioavailability turned out to be 0.3% in series [1] (Beagle, po, IntelliCap, Distal small bowel, 0.81 mg/kg, 12 mg/mL peptide, 25 mg/mL Na CDC, 12.5 mg/mL PG, pH 8.0); 2.6% in series [1] (Beagle, po, IntelliCap, Proximal colon, 0.85 mg/kg, 12 mg/mL peptide, 25 mg/mL Na CDC, 12.5 mg/mL PG, pH 8.0); 0.5% in series [1] (Beagle, po, IntelliCap, Proximal small bowel, 0.86 mg/kg, 12 mg/mL peptide, 25 mg/mL Na CDC, 12.5 mg/mL PG, pH 8.0); 87% in series [1] (beagle, sc, Subcutaneous, 0.03 mg/kg, 0.3 mg/mL peptide in 50 mM Tris, 150 mM Mannitol, 0.02% PS80, pH 8.0). Further, the F in series [1] (setting [2]) was found to be 100%. Further, the AUC(0-t) in series [1] (setting [3]) was 166 ng·h/mL; in series [1] (setting [4]) it was 1500 ng·h/mL; in series [1] (setting [5]), 297 ng·h/mL; in series [1] (setting [2]) it was 2000 ng·h/mL; in series [1] (setting [6]) it was 1770 ng·h/mL. Also, the Cmax in series [1] (setting [3]) was determined as 51 ng/mL; in series [1] (setting [4]), 301 ng/mL; in series [1] (setting [5]), 75 ng/mL; in series [1] (setting [2]), 449 ng/mL; in series [1] (setting [6]), 144 ng/mL. The Tmax in series [1] (setting [3]) was determined as 15 min; in series [1] (setting [4]), 15 min; in series [1] (setting [5]) it was 15 min; in series [1] (setting [2]), 15 min; in series [1] (setting [6]) it was 240 min. For the same compound, the entries for the “Permeability (%)” value in the series on Caco-2 cells (5.0 mg/mL Sodium Chenodeoxycholate) and in the series with Caco-2 cells (25 mg/mL Sodium Chenodeoxycholate) were 3.2% and 10.4%, respectively.
As to `C[C@H](CCC(=O)[O-])[C@H]1CC[C@H]2[C@@H]3[C@H](O)C[C@@H]4C[C@H](O)CC[C@]4(C)[C@H]3CC[C@]12C.[Na+]` [Sodium Chenodeoxycholate], the solubility in the series “physchem” (pH 5.5) was >200000 µg/mL.
